# Values joined by “and” are separate entries in the source; they are usually repeats but may differ in a detail not shown here. Equal values may be shown once.
# What was measured:
# α1A = biological target: T1, α1A (Oryctolagus cuniculus, UniProt O02824); assay: Binding study in rabbit liver
# T1 construct: from tissue
# T1 sequence (O02824 1-466): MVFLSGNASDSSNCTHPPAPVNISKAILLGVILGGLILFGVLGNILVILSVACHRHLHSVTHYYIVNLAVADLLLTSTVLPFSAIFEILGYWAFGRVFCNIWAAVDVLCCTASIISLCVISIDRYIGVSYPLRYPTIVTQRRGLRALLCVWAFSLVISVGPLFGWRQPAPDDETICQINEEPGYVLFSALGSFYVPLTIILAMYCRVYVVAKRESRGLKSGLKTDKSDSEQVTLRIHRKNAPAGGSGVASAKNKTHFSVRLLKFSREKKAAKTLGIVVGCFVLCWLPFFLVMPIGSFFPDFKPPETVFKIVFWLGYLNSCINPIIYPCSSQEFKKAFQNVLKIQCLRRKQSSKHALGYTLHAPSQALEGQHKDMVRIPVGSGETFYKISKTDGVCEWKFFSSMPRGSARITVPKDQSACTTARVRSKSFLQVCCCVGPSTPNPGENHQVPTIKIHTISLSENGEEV
# [1] = biological target: T2, alpha 1D adrenoceptor (rat aorta) (Rattus norvegicus, UniProt P23944); assay: Vasoconstriction assay in rat aorta induced by norepinephrine; type: cell-based
# T2 construct: from tissue; host or cells: rat aorta segments with endothelium
# T2 sequence (P23944 1-561): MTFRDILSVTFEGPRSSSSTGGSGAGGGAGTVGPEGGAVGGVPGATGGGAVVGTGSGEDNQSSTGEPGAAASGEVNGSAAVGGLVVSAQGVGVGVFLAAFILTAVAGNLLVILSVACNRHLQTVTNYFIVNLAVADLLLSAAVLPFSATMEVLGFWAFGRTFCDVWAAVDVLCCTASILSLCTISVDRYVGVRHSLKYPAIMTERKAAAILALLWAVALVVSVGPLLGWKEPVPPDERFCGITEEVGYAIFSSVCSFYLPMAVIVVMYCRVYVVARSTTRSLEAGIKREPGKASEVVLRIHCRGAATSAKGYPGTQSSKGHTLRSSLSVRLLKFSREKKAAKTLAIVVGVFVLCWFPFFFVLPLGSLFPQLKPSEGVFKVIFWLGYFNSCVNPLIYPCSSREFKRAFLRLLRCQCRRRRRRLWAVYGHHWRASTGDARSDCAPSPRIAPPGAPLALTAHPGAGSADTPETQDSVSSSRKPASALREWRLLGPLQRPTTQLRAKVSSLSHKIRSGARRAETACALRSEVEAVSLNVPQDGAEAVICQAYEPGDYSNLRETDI
# Procedure: Vasoconstriction Assay in Mouse Aorta Induced By Norepinephrine
# Aorta segments with endothelium (3 mm), withdrawn from young male rats (250-300 g), were placed in containers containing physiologic solution (NaCl 122 mM, KCl 5 mM, NaHCO3 15 mM, glucose 11.5 mM, MgCl2 1.2 mM, CaCl2 1.25 mM and KH2PO4 1.2 mM), kept at 37° C. under aeration with a mixture of 95% of O2 and 5% of CO2, and submitted to a pre-charge of 5 mN for 60 minutes. During this period, eventual tension adjustments were performed until the stabilization in 0.5 g, always with renewal with physiologic solution. Then, vasoconstriction was induced by 60 mM KCl solution, in each ring, to verify the viability of the organ on the day of experiment. The preparation was submitted to the contraction with norepinephrine (5×10^−5 M) and, then the rings were washed to reach the basal line (0% of vasoconstriction). The procedure was repeated until the obtainment of a constant curve. Later, a curve, using increasing concentrations of norepinephrine (3×10^−8-5×10^−5 M), was performed for each ring, as a positive control. The segments were washed to reach the basal line (0% of vasoconstriction) and incubated with the test compounds, individually, for 30 minutes. A second norepinephrine curve was performed and obtained data compared to the first control curve. […] The aorta rings were used once for each compound.
# Determination of the LASSBio 772 Antagonist Potency (pKB) on the Vasoconstriction of Rabbit or Rat Thoracic Aorta.
# [2] = Arterial pressure effects in anesthetized rabbits; type: in vivo; details: rabbit
# Procedure: Animal and Homodynamic Measurements:
# The experiments were performed with male rabbits weighing 3 kg, from the CECAL (Centro de Criação de Animais de Laboratório) at Fundação Oswaldo Cruz. The animals were anesthetized with sodium pentobarbital (40 mg/kg) in the ear marginal vein, and anesthesia maintenance was obtained with supplemental intravenous (i.v.) doses of 5 mg/kg as necessary. The […] were tracheomized, inserted with a polyethylene canule, and immobilized with pancuronium bromide (1 mg/kg, i.v.), with supplemental doses of 0.2 mg/kg for each hour of experiment and artificially ventilated with a mechanical fan (Rodent ventilator 7025, Ugo Basile) with a volume of 10 ml/kg and frequency from 40 to 50 incursions/min. The right femoral vein was catheterized for drug administration.
# The arterial pressure was monitored through abdominal aorta catheter via the right femoral artery and connected to a quartz transductor Hewlett Packard (1290 A), which was connected to an arterial pressure processor and recorder Hewlett Packard (system 7754 with amplifier 8805 B).
# The systolic (SAP) and diastolic (DAP) arterial pressures were obtained directly from the records and the average arterial pressure (AAP) was calculated by DAP's Sum with a third of the differential pressure [[…]]. The cardiac frequency was determined by counting the pressure waves, visualized with the speed increase of the recorder paper.
# The cardiac debit (DC) was monitored using an electromagnetic probe, connected to a Skalar flowmeter model MDL 1401. After left thoraxatomy, between the second and third ribs, was made an incision in the pericardium and the heart was exposed to enable the visualization and dissection of the ascending aorta for installation of the electromagnetic probe. The systemic vascular resistance (SVR) was calculated as a quotient of the average arterial pressure by the cardiac debit, multiplied by a conversion factor 80 (SVR=AAP/DC×80) and expressed in dyn/seg/cm-5.
# At the conclusion of the anesthetic-surgical procedures, a 15-minute period was allowed for stabilization of the homodynamic parameters. Before any pharmacological manipulation the average arterial pressure, cardiac frequency and cardiac debit measurements were obtained. These values were considered basal homodynamic values.
# The results were expressed as average±standard deviation (E.P.M.) The administration effects of LASSBio 772 with regard to the basal values were analyzed through variance analysis (ANOVA) for repeated measurements. When a significant statistical difference was found in the test ANOVA, the test Newman-Keuls was used to locate the differences. The paired t test was used to analyze the phenylephrine pressure effects before and after the treatment with LASSBio 772B. Differences with p<0.05 were considered significant. All the calculations were done on the computer, using the statistic software Instat-2.0.
# Arterial Pressure Effects of LASSBio 772 Administration: […]
compound,measurement,setting,value
"COc1ccccc1N1CCN(CCc2ccc3c(c2)OCO3)CC1 [LASSBio 772, 1-(2-1,3-Benzodioxol-5-yl-ethyl)-4-(2-methoxy-phenyl)-piperazine]",IC50,α1A,4.9 nM
same,selectivity index for alpha 1D in comparison to alpha 1B subtype,[1],≥ 10000
same,Kb,"[1]; pKB, rat aorta, α1D",0.0132 nM and 0.0138 nM
same,affinity for alpha 1D subtype relative to BMY 7378,[1]; rat aorta,≥ 430 times
same,reduction of arterial pressure,[2]; 100 μg/kg i.v.,~10%
same,average arterial pressure (AAP),"[2]; 100 μg/kg i.v., n=5",79±4 mmHg
same,diastolic arterial pressure (DAP),"[2]; 100 μg/kg i.v., n=5",71±4 mmHg
same,systolic arterial pressure (SAP),"[2]; 100 μg/kg i.v., n=5",94±7 mmHg
same,hypotension,[2]; i.v.,without however causing significant clinically hypotension
same,dose from which a significant hypo-tensor response was induced,"[2]; i.v., doses 1-100 μg/kg, versus basal values",≥ 3 µg/kg

# — US20070219213A1, “Use of Adrenergic N-Phenylpiperazine Antagonists, Pahrmaceutical Compositions Containning Them, and Methods of Preparing Them” (priority 2004, published 2007)
